# In PMC8781192, “An In Silico and an In Vitro Inhibition Analysis of Glycogen Phosphorylase by Flavonoids, Styrylchromones, and Pyrazoles” (Nutrients, 2022):
# Like-named read-outs stand apart in the source and are kept apart here.
# Legend:
# rabbit mGPa [1] = molecular target: T1, rabbit mGPa (Oryctolagus cuniculus, UniProt P00489); test: In vitro glycogen phosphorylase inhibition assay (direction of glycogen synthesis, colorimetric phosphate); assay type: biochemical; conditions: no glucose; mean ± SEM; read-out: GPa IC50 value
# T1 construct: purchased Creative Enzymes
# T1 sequence (P00489 2-843 limits assumed): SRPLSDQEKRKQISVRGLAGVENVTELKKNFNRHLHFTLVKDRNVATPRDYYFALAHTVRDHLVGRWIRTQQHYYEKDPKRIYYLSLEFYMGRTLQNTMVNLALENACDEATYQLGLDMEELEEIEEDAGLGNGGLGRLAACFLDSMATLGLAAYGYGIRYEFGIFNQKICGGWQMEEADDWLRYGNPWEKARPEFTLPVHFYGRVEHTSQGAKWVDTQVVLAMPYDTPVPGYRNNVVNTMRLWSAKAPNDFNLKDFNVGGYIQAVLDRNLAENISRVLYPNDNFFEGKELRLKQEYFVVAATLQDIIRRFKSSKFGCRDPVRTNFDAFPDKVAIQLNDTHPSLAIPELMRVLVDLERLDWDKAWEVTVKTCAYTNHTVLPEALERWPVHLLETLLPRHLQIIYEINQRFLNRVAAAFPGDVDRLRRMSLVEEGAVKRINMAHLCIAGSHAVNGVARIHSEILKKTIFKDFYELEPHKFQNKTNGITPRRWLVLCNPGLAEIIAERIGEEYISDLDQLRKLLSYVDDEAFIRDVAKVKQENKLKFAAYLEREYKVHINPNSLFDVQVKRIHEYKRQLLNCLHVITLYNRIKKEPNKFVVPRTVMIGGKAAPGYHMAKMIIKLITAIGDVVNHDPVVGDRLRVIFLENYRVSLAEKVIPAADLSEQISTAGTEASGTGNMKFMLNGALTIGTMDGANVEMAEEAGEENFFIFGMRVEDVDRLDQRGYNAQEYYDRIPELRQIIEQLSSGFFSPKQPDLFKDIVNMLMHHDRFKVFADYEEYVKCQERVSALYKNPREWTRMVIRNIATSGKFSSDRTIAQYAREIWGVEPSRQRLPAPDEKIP
# Description: The GP activity was measured using a previously optimized and validated method. In each assay, GP activity was measured by the direction of glycogen synthesis, which involved monitoring the colorimetric determination of inorganic phosphate deriving from glucose 1-phosphate. […] The enzymatic reaction was then started with the addition of a 50 mM HEPES buffer solution, with a pH of 7.2, containing 100 mM KCl, 2.5 mM MgCl2, 0.25 mM glucose 1-phosphate, and 0.25 mg/mL glycogen incubated for 30 min at 37 °C. After this incubation time, the reagent for colorimetric phosphate quantitation, BIOMOL® Green, was added to the reaction mixture. The reaction was monitored in a microplate reader (Synergy HT, BioTek Instruments, Winooski, VT, USA) at 620 nm.
# rabbit mGPa [2] = molecular target: T1, rabbit mGPa; test: In vitro effect of glucose on inhibitor potency (GPa inhibition with 0, 5, 10 mM glucose); assay type: biochemical; conditions: mean ± SEM, read-out: GPa IC50 value
# Description: The method was performed as described in Section 2.2, with slight modifications. […] The enzymatic reaction was then started with the addition of a 50 mM HEPES buffer solution with a pH of 7.2 containing 100 mM KCl, 2.5 mM MgCl2, 0.25 mM glucose 1-phosphate, and 0.25 mg/mL glycogen. This buffer was used without glucose, or it was enriched with 5 and 10 mM of glucose and was incubated for 30 min at 37 °C in the reaction mixture. After this incubation time, BIOMOL® Green was added, and the reaction was monitored in a microplate reader (Synergy HT, BioTek Instruments, Winooski, VT, USA) at 620 nm.
# rabbit mGPa [3] = molecular target: T1, rabbit mGPa; design: method as in PMID 16317787; conditions: direction of glycogen breakdown; cited from earlier work
# GPb = test system: GPb; design: method as in PMID 16317787; conditions: direction of glycogen breakdown; cited from earlier work
# GP = test system: GP; design: method as in PMID 18494482; conditions: cited from earlier work
# [4] = test system: rabbit mGPa and mGPb, together with human lGPa; design: method as in PMID 32771768; conditions: direction of glycogen synthesis; cited from earlier work
smiles,measurement,setting,value
"O=c1cc(-c2ccccc2)oc2cc(O)cc(O)c12 [Compound 38, Chrysin]",IC50,rabbit mGPa [1],19.3 ± 1.5 µM
same,IC50,rabbit mGPa [2]; 0 mM of glucose,19.3 ± 1.5 µM
same,IC50,rabbit mGPa [2]; 5 mM of glucose,8.8 ± 0.8 µM
same,IC50,rabbit mGPa [2]; 10 mM of glucose,5.2 ± 0.3 µM
same,IC50,rabbit mGPa [3],27.5 µM
same,IC50,GPb,15.3 ± 1 µM
same,IC50,GP,> 200 µM
same,"potency relative to flavonoid 45, quercetin",[4],~10 fold
